Patent publication US6677369B2, “Antithrombotic agents” (Eli Lilly and Company, priority 1997, dated 2004)
Counter-ions that a name gives are not always drawn.

melting point [°C] | SMILES
196 to 198 | CC(C)(C)c1ccc(C(=O)Nc2ccccc2NC(=O)c2cccc(C(=N)N)c2)cc1.Cl
163 to 165 | CCOc1ccc(C(=O)Nc2ccccc2NC(=O)c2cccc(C(=N)N)c2)cc1 [Example 38, N^1-[3-(amino(imino)methyl)benzoyl]-N^2-(4-ethoxybenzoyl)-1,2-benzenediamine]
227 to 229 | CC(C)c1ccc(C(=O)Nc2ccccc2NC(=O)c2cccc(C(=N)N)c2)cc1.Cl
194 to 196 | CC(C)(C)c1ccc(C(=O)Nc2ccccc2C(=O)Nc2cccc(C(=N)N)c2)cc1.Cl
163 to 167 | COc1ccc(NC(=O)c2ccccc2NC(=O)c2cccc(C(=N)N)c2)cc1 (as salt: salt) [Example 12, 2-[3-(amino(imino)methyl)benzoylamino]-N-(4-methoxyphenyl)benzamide]
